Experimental data reported in PubChem BioAssay (NCI).
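Test compounds were applied to cells in 96-well plates for 48 hours at 5 doses. Here, GI50 denotes the concentration required for 50% inhibition of growth. TGI: concentration producing complete growth inhibition.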

Experiments:
Test in all cases: DTP human tumour cell line panel, 48 h
MDA-MB-435 = tested on: MDA-MB-435
NCI-H23 lung = tested on: NCI-H23 lung
K-562 leukemia = tested on: K-562 leukemia
MOLT-4 leukemia = tested on: MOLT-4 leukemia
MDA-N = tested on: MDA-N
HS 578T breast = tested on: HS 578T breast
COLO 205 colon = tested on: COLO 205 colon
SF-268 CNS = tested on: SF-268 CNS
OVCAR-8 ovarian = tested on: OVCAR-8 ovarian
TK-10 renal = tested on: TK-10 renal

Row | SMILES | TGI (MDA-MB-435) | TGI (NCI-H23 lung) | TGI (K-562 leukemia) | TGI (MOLT-4 leukemia) | TGI (MDA-N) | TGI (HS 578T breast) | TGI (COLO 205 colon) | TGI (SF-268 CNS) | TGI (OVCAR-8 ovarian) | TGI (TK-10 renal) | GI50 (TK-10 renal) | GI50 (NCI-H23 lung) | GI50 (K-562 leukemia) | GI50 (MOLT-4 leukemia) | GI50 (HS 578T breast) | GI50 (OVCAR-8 ovarian)
1 | C[C@H]1C[C@H]2[C@@H]3C(C)(C)O[C@]4(O)C(=O)[C@]5(O)[C@@H](C)CC[C@H]1[C@]25C(=O)[C@]34C | 96.3 µM | > 100 µM | > 100 µM | 80.7 µM | > 100 µM | > 100 µM | 38.6 µM | > 100 µM | > 100 µM | – | – | – | – | – | – | –
2 | c1ccc2c(c1)CCc1c-2n(CCN2CCOCC2)c2ccccc12 | > 100 µM | > 100 µM | > 100 µM | > 100 µM | > 100 µM | > 100 µM | > 100 µM | > 100 µM | > 100 µM | > 100 µM | – | – | – | – | – | –
3 | CC(=O)Oc1c2oc3ccc(Cl)cc3c(=O)c2c(O)c2ccsc12 | > 100 µM | > 100 µM | > 100 µM | – | > 100 µM | > 100 µM | > 100 µM | > 100 µM | > 100 µM | > 100 µM | – | – | – | – | – | –
4 | O=c1[nH]nc(-c2ccccc2)n1/N=C/c1cccnc1 | > 100 µM | > 100 µM | > 100 µM | > 100 µM | > 100 µM | > 100 µM | – | > 100 µM | > 100 µM | > 100 µM | – | – | – | – | – | –
5 | COc1c(O)cc(O)c2c(=O)cc(-c3ccccc3)oc12 | > 100 µM | > 100 µM | > 100 µM | > 100 µM | > 100 µM | > 100 µM | > 100 µM | > 100 µM | > 100 µM | > 100 µM | – | – | – | – | – | –
6 | OC(CCNCc1ccccc1)c1ccc2ccccc2c1 (configuration not stated) | 44.2 µM | 62.1 µM | 50.9 µM | 84.8 µM | – | 47.7 µM | 47.2 µM | 48 µM | 45.9 µM | 33.6 µM | – | – | – | – | – | –
7 | CCOC(=O)c1c(N2CCCC2)ncn(Cc2ccccc2)c1=S | > 100 µM | > 100 µM | > 100 µM | > 100 µM | > 100 µM | > 100 µM | > 100 µM | > 100 µM | > 100 µM | > 100 µM | – | – | – | – | – | –
8 | O=c1cc(N2CCN(c3cc(=O)n4ccccc4n3)CC2)oc2ccccc12 | > 100 µM | > 100 µM | > 100 µM | > 100 µM | > 100 µM | > 80.2 µM | > 100 µM | > 65.3 µM | 96.9 µM | > 100 µM | – | – | – | – | – | –
9 | Cc1c2c(n(CCc3ccc(Cl)cc3)c1C)NC(c1ccccc1)C(C#N)S2(=O)=O (configuration not stated) | > 66.9 µM | > 100 µM | 47.8 µM | 11.6 µM | > 74.9 µM | > 79.5 µM | > 71.4 µM | > 100 µM | > 100 µM | > 100 µM | – | – | – | – | – | –
10 | O=c1oc2ccccc2cc1-c1cn2cc(Cl)ccc2n1 | 0.138 µM | 21.1 µM | > 100 µM | > 36.1 µM | 0.428 µM | 8.19 µM | > 50.3 µM | 16.7 µM | 18.6 µM | 22.3 µM | – | – | – | – | – | –
11 | COC(=O)c1c(OC(C)=O)ccc2c1c1c(n2C)C(=O)c2ccccc2C1=O | > 100 µM | 61.2 µM | > 100 µM | > 100 µM | > 100 µM | 39.1 µM | > 100 µM | > 100 µM | > 100 µM | 88.1 µM | – | – | – | – | – | –
12 | CCOP(=O)(OCC)C1CC(n2cc(C)c(=O)[nH]c2=O)OC1CO (configuration not stated) | – | > 100 µM | > 100 µM | > 100 µM | > 100 µM | > 100 µM | – | > 100 µM | > 100 µM | > 100 µM | – | – | – | – | – | –
13 | O=C1C(=O)c2ccccc2C(O)=C1CCCc1ccc(Oc2ccccc2)cc1 | – | 19.1 µM | > 100 µM | > 100 µM | – | – | 32.1 µM | > 100 µM | > 100 µM | > 100 µM | – | – | – | – | – | –
14 | COc1ccc(C(=O)/C=C/c2c(Cl)c3c(c(OC)c2Cl)OCC(=O)N3)cc1 | – | 4.85 µM | 7.73 µM | 9.75 µM | – | 50.4 µM | – | – | 16.3 µM | 6.09 µM | 2.55 µM | 2.23 µM | 1.85 µM | 2.71 µM | 4.43 µM | 2.85 µM
15 | COc1ccc2nc3cc([N+](=O)[O-])ccc3c(Nc3ccc(S(=O)(=O)NC(C)=O)cc3)c2c1 | > 100 µM | > 100 µM | > 100 µM | > 100 µM | > 100 µM | > 100 µM | > 100 µM | > 100 µM | – | > 100 µM | – | – | – | – | – | –
16 | COc1cc(C(C)c2cc3c(cc2OCCO)OCO3)cc(OC)c1OC (configuration not stated) | – | – | > 100 µM | > 100 µM | – | – | 7.47 µM | > 100 µM | > 100 µM | > 100 µM | – | – | – | – | – | –
17 | CC1=NN(c2nc(N)nc(/C(C#N)=C/c3cccn3-c3cc(Cl)cc(Cl)c3)n2)C(C)(C)C1 | > 100 µM | > 100 µM | – | – | > 100 µM | > 100 µM | > 100 µM | > 100 µM | > 100 µM | > 100 µM | – | – | – | – | – | –
18 | CCOC(=O)Cc1cc(OC)c(OC)cc1/C(Cl)=C(\C=O)c1ccc(OC)c(OC)c1 | – | 51.2 µM | 56.5 µM | 42.1 µM | – | – | 50.6 µM | – | 80.8 µM | 90.8 µM | – | – | – | – | – | –
19 | N#Cc1c(-c2ccc(Cl)cc2)c2c(n(C3OC(CO)C(O)C(O)C3O)c1=S)CCC2 (configuration not stated) | 46.1 µM | 70.6 µM | 38.5 µM | 29 µM | > 100 µM | 84.3 µM | 63.8 µM | 84.7 µM | – | > 100 µM | – | – | – | – | – | –
20 | O=C(Cn1c(C(=O)/C=C/c2cccs2)nc2ccccc21)c1ccc(Cl)cc1 | > 100 µM | 36.8 µM | 45.7 µM | – | 56.7 µM | 38.7 µM | 38.3 µM | 66.5 µM | – | 89.5 µM | – | – | – | – | – | –
21 | CC1(C)[C@H]2CC[C@]1(C)[C@H](OC(=O)NNC(=O)O[C@@H]1C[C@@H]3CC[C@@]1(C)C3(C)C)C2 | 64.4 µM | 34.9 µM | 17 µM | 27.3 µM | 24.8 µM | 36.6 µM | 25.6 µM | 33.1 µM | – | 38.6 µM | – | – | – | – | – | –
22 | O=C1c2cc3c(cc2CC12Cc1ccc4c(c1C2=O)CCCC4)CCCC3 (configuration not stated) | > 100 µM | > 100 µM | > 100 µM | > 100 µM | > 100 µM | > 100 µM | – | > 100 µM | > 100 µM | > 100 µM | – | – | – | – | – | –
